Experimental data from ChEMBL document CHEMBL1201862, “PubChem BioAssay data set” (2004).
Active and inactive are the calls of the source.

Tests used:
[1] = biological target: FAD-linked sulfhydryl oxidase ALR (Homo sapiens, UniProt P55789); assay: inhibitors of human ALR sulfhydryl oxidase, dose response, biochemical, H2O2 detection, luminescence, cherry-pick (AID 493248)
[2] = HepG2 cell cytotoxicity, dose response, cytotoxicity control for Shn3 inhibitor project, CellTiter-Glo, cherry-picked (AID 624134); assay type: functional, cell-based
[3] = control 3'UTR Renilla luciferase suppression, dose response, counter-screen for Shn3 inhibitor project, cell-based, Clone20-Shn3RL, cherry-picked (AID 624133); assay type: functional
[4] = Shn3 3'UTR reporter inhibitors, dose response, cell-based, Clone20 osteoblasts, firefly luciferase, cherry-picked (AID 624132); assay type: functional;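 note: firefly luciferase luminescence from reporter carrying the Shn3 3'UTR in osteoblasts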
Large T antigen = Large T antigen (Simian virus 40, UniProt P03070); assay type: functional, Betapolyomavirus macacae;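 note: Confirmatory-stage PubChem screen for compounds that inhibit SV40 T antigen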
Large T antigen, sequence (P03070 whole entry): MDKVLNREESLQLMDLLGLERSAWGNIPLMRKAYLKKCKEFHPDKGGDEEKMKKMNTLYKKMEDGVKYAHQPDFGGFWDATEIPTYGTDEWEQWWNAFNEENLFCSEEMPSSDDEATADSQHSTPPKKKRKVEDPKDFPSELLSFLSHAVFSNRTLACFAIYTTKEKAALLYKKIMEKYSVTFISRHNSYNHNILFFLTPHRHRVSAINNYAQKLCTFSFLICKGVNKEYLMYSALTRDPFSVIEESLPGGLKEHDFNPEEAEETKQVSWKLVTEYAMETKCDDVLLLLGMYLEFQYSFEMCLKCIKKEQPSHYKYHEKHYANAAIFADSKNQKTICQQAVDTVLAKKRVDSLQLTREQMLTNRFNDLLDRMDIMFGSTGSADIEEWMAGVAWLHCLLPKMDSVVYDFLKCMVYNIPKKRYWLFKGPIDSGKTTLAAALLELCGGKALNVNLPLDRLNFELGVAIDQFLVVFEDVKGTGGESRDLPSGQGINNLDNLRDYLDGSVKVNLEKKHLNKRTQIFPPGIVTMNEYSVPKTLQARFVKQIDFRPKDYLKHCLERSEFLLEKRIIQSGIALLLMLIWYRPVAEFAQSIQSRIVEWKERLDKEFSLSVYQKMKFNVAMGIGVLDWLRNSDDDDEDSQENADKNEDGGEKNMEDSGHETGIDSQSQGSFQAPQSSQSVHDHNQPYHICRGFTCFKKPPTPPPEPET

Genome polyprotein = Genome polyprotein (dengue virus type 2, UniProt P29990); assay: Dengue-2 NS5 methyltransferase inhibitors, primary screen, biochemical, confirmation dose response (AID 588689); assay type: functional
Genome polyprotein, sequence (P29990 2492-3391 limits assumed): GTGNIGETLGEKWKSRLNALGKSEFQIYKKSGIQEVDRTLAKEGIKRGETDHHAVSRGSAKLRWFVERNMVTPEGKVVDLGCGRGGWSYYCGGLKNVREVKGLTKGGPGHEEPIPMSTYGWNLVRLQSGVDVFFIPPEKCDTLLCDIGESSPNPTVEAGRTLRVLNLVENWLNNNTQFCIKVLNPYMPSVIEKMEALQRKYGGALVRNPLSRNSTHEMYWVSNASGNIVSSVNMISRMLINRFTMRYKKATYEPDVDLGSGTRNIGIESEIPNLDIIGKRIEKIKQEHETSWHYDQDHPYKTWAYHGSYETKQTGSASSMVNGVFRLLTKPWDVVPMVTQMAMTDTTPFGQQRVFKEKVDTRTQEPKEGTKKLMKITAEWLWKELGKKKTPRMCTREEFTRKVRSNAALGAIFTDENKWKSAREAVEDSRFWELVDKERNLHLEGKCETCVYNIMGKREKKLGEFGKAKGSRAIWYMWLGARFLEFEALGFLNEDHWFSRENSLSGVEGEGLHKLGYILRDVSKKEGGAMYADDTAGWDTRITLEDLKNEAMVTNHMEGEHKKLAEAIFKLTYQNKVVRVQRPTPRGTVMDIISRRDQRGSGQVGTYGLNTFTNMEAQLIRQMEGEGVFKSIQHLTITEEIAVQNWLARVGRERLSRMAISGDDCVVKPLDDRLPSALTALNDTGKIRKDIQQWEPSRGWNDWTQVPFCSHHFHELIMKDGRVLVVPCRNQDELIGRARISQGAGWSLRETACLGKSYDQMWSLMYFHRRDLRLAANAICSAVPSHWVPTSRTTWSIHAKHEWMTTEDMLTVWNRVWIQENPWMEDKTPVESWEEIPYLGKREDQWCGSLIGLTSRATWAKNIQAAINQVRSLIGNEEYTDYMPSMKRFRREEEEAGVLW

Protein RecA = biological target: T1, Protein RecA (Mycobacterium tuberculosis, UniProt P9WHJ3); assay: Fluorescence Cell-Free Homogeneous Dose Retest to Identify Inhibitors of RecA-Intein Splicing Activity. [Related pubchem assays (depositor defined):AID2097, AID2223, AID489010, AID492950]; assay type: functional
T1 sequence (P9WHJ3 whole entry): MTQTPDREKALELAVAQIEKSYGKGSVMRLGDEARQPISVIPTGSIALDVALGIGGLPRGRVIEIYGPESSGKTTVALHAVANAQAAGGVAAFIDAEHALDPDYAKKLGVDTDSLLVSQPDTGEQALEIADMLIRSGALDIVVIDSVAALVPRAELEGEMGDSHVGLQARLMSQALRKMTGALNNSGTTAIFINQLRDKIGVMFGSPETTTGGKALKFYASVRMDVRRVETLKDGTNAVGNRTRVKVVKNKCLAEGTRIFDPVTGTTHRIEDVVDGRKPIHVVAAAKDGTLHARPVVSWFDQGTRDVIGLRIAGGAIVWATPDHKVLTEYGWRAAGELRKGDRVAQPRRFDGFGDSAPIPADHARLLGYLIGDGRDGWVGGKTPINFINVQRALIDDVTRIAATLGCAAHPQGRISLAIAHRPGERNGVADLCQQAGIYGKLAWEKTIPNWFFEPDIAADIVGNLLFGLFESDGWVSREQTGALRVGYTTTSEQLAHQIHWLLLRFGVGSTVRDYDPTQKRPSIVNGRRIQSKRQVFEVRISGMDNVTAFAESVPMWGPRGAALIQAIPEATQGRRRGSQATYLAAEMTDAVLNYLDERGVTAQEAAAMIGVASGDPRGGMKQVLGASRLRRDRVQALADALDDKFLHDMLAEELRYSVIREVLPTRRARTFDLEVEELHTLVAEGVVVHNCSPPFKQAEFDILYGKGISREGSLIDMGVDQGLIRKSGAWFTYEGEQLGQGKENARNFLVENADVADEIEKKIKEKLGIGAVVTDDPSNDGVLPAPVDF

[5] = biological target: T2, Replicative DNA helicase DnaB (Mycobacterium tuberculosis, UniProt P9WMR3); assay: DnaB intein splicing inhibitors, dose response, biochemical, cell-free fluorescence (AID 449749); assay type: functional
T2 sequence (P9WMR3 whole entry): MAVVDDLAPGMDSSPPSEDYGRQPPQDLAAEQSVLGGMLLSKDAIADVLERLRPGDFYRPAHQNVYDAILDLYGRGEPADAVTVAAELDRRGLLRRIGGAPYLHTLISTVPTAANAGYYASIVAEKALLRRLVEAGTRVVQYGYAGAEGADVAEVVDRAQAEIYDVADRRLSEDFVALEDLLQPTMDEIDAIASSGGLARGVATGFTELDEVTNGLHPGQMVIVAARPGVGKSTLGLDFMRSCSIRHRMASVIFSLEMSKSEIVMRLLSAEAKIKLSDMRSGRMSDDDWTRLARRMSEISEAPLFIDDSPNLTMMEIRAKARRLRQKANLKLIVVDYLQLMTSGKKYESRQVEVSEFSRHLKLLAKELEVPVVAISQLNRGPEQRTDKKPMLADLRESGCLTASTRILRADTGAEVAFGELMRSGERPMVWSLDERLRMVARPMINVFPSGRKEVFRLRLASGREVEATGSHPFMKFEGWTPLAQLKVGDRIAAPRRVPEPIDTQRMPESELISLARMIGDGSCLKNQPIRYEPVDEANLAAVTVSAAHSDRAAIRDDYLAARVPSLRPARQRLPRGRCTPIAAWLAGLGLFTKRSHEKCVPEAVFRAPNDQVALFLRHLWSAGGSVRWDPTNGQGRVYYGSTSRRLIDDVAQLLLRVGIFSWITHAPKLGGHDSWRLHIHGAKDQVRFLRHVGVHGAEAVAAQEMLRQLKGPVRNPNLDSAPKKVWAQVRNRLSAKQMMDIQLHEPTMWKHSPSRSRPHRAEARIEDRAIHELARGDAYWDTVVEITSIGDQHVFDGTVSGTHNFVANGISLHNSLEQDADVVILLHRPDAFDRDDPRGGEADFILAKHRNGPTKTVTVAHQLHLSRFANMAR

[6] = biological target: T3, Ubiquitin-conjugating enzyme E2 N (Homo sapiens, UniProt P61088); assay type: functional;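 note: Dose-response confirmation in a TR-FRET assay detecting UBC13-driven polyubiquitin chain formation, inhibition measured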
T3 sequence (P61088 whole entry): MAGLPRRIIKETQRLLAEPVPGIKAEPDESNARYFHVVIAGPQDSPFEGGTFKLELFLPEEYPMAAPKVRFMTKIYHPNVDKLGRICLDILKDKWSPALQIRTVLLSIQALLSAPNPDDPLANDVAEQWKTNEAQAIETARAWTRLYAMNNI

[7] = NIH-3T3 fibroblast cytotoxicity, dose response, cytotoxicity control, cell-based, fluorescence, Alamar Blue, secondary assay (AID 2327); assay type: functional;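 note: NIH-3T3 mouse fibroblasts cultured with fluconazole at 8 µg/mL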
[8] = biological target: T4, Rac GTPase-activating protein 1 (Homo sapiens, UniProt Q9H0H5); assay: MgcRacGAP GTPase-activating activity inhibitors, confirmation, biochemical, ADP Hunter fluorescence, primary and confirmatory (AID 624330); assay type: functional
T4 sequence (Q9H0H5 whole entry): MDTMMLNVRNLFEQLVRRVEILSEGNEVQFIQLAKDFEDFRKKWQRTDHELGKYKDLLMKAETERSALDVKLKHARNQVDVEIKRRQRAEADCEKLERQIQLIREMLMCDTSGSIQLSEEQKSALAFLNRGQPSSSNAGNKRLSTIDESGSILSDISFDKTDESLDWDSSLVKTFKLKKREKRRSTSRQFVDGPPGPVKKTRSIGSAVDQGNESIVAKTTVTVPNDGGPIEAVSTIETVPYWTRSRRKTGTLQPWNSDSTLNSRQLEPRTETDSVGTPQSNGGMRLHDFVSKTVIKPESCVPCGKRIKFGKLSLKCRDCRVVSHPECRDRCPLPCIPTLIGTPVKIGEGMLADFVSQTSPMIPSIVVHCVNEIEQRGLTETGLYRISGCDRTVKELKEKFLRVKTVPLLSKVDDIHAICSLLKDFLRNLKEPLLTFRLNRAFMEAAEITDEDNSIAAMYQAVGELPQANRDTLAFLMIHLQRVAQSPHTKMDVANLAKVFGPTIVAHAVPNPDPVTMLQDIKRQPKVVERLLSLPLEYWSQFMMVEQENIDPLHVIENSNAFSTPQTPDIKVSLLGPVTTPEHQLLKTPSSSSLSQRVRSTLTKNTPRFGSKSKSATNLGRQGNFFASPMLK

Streptococcus = assay: Group A Streptococcus viability loss, dose response, counter-screen for streptokinase expression inhibitor project, luminescence, BacTiterGlo (AID 1915); assay type: functional, organism-based;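 note: potency for reduction of bacterial viability or growth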
Streptokinase A = biological target: T5, Streptokinase A (Streptococcus pyogenes serotype M1, UniProt P10520); assay: S. pyogenes streptokinase expression inhibitors, potency, dose response, plasminogen activation absorbance, OD405 (AID 1914); assay type: functional, Streptococcus pyogenes M1 GAS;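 note: secreted streptokinase activity via plasminogen activation per viability signal from cell pellet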
T5 sequence (P10520 whole entry): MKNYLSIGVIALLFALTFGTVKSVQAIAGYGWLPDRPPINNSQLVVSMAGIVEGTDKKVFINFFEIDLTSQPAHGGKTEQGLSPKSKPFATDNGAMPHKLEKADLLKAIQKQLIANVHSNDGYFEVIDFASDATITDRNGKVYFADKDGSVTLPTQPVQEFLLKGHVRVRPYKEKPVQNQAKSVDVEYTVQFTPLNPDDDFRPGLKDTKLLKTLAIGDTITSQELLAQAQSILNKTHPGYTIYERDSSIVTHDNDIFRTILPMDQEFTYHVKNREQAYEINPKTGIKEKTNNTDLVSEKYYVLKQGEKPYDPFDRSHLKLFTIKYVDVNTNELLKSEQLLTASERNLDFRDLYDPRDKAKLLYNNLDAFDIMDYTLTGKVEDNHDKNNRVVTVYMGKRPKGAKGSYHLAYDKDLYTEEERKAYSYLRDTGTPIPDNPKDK

[9] = system: Streptococcus sp. 'group A'; assay: growth inhibition of control SK(-) GAS strain, dose response, counter-screen for streptokinase expression inhibitor project, luminescence, kanamycin, BacTiterGlo, confirmation (AID 1900); assay type: functional, organism-based

FAD-linked sulfhydryl oxidase ALR, sequence (P55789 whole entry): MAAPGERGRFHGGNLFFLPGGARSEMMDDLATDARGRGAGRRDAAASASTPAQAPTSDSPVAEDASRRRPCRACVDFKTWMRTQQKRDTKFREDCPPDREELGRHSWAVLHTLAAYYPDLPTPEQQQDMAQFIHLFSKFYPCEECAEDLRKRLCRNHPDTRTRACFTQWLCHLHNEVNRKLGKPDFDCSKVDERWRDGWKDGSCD

With `CC(=O)Nc1ccc(Nc2nc3ccccc3nc2NS(=O)(=O)c2ccccc2)cc1` as the compound, how does the AC50 [1] read?
Its AC50 is 0.13 µM (active).

For `C=C(C)[C@@H]1C2=CC(C(=O)OC)=C(C[C@H](C(=C)C)[C@H]3O[C@H]3C3=C[C@H]1OC3=O)O2`, which AC50 [2] is on record?
The AC50 was 13.3 µM (active).

And the AC50 [3]?
Its AC50 is 5.23 µM (active).

And the AC50 [4]?
Its AC50 is 8.16 µM (active).

Which IC50 (Large T antigen) does the source give for `Cc1ccc(S(=O)(=O)Nc2nc(C)cc(N/N=C/c3ccc(O)cc3)n2)cc1` here?
The IC50 was 10.6 µM (active).

With `O[C@@H]1CN(Cc2ccc(-n3cccn3)cc2)CC[C@H]1N1CCN(c2ccccc2F)CC1` as the compound, how does the AC50 [2] read?
Its AC50 is 68 µM (active).

And the AC50 [3]?
The AC50 was 2.39 µM (active).

What about the AC50 [4] of the same compound?
The AC50 was 2.13 µM (active).

With `CCCc1nc2[nH]c(C)c(NS(=O)(=O)c3ccc(C4CCCCC4)cc3)c(=O)n2n1` as the compound, how does the IC50 (Genome polyprotein) read?
Its IC50 is 61.1 µM (active).

With `COc1cc(C(=O)Nc2ccc(O)cc2)ccc1OC(C)=O` as the compound, how does the IC50 (Large T antigen) read?
The IC50 was 6.12 µM (active).

What does the source list for `O=C(O)/C=C/C(=O)Nc1ccc(C2(c3ccc(NC(=O)/C=C/C(=O)O)cc3)c3ccccc3-c3ccccc32)cc1`?
IC50 (Genome polyprotein): 18.1 µM (active); EC50 (Protein RecA): 2.88 µM (active); AC50 [5]: 13.3 µM (active)

With `O=C(CCCn1c(=S)[nH]c2ccsc2c1=O)NCCc1ccccc1` as the compound, how does the IC50 [6] read?
Its IC50 is > 20 µM (inactive).

With `COc1ccc(/C=C2\C(=O)ON=C2c2ccccc2)cc1OC` as the compound, how does the IC50 (Genome polyprotein) read?
The IC50 was 95.4 µM (active).

For `Cn1c(NN)nc2sc3c(c2c1=O)CCC3`, which EC50 [7] is on record?
Its EC50 is > 150 µM (inactive).

With `O=C(NCC(c1ccco1)N1CCc2ccccc21)c1ccccc1` (stereo not given) as the compound, how does the AC50 [1] read?
The AC50 was 1.21 µM (active).

With `Cc1cc2c(Nc3ccc(O)cc3)ncnc2s1` as the compound, how does the IC50 (Large T antigen) read?
Its IC50 is 5.5 µM (active).

With `CC(=O)Nc1ccc(S(=O)(=O)Nc2ccc(Nc3ccccc3)cc2)cc1` as the compound, how does the IC50 [8] read?
The IC50 was 70.1 µM (active).

And the AC50 [1]?
Its AC50 is 0.268 µM (active).

For `COC(=O)c1sc(N2C(=O)C(O)=C(C(=O)c3ccc(C)o3)C2c2ccc([N+](=O)[O-])cc2)nc1C` (stereo not given), which IC50 (Genome polyprotein) is on record?
Its IC50 is 38.5 µM (active).

What about the EC50 (Streptococcus) of the same compound?
Its EC50 is 6.86 µM (active).

And the EC50 (Streptokinase A)?
Its EC50 is > 150 µM (not active).

What about the EC50 [9] of the same compound?
The EC50 was 4.55 µM (active).

Which IC50 (Genome polyprotein) does the source give for `Cc1ccc(C(C2C(=O)CC(C)(C)CC2=O)C2C(=O)CC(C)(C)CC2=O)s1` here?
The IC50 was 46.4 µM (active).
